{"source": "patent US5635518A", "about": "“N-substituted azaheterocyclic carboxylic acids and esters thereof” (Novo Nordisk A/S, priority 1993, dated 1997)", "note": "Where a name gives a salt, the structure may show the parent alone.", "data": [{"test_system": "[^3 H]-GABA uptake", "test": "in vitro inhibition of [3H]-GABA uptake, rat cortical tissue homogenate (method of Fjalland)", "assay_type": "biochemical, Male wistar rat", "conditions": "40 mM tris HCl pH 7.5, 60 minutes at 30° C.", "protocol": "Values for in vitro inhibition of [^3 H]-GABA uptake for the invention compounds were assessed essentially by the method of Fjalland (Acta Pharmacol. Toxicol. 1978, 42, 73-76). Male wistar rat cortical tissue was gently homogenized by hand using a glass/PTFE homogenizer in 10 volumes of 0.32M sucrose. Incubation was performed in a 40 mM tris HCl buffer (pH 7.5 at 30° C.) containing […], 4 mM MgSO4, […] and 10 mM glucose, for 60 minutes at 30° C. Values for inhibition of GABA uptake for some representative compounds are recorded in Table I.", "units": {"IC50": "µM"}, "values": [{"smiles": "O=C(O)[C@@H]1CCCN(CCOc2ccccc2)C1", "note": "[Example 1, (R)-1-(2-Phenoxyethyl)-3-piperidinecarboxylic acid hydrochloride]", "IC50": 64}, {"smiles": "O=C(O)[C@@H]1CCCN(CCCCOc2ccccc2)C1", "note": "[Example 2, (R)-1-(4-Phenoxy-1-butyl)-3-piperidinecarboxylic acid hydrochloride]", "IC50": 24}, {"smiles": "O=C(O)[C@@H]1CCCN(CCOc2ccccc2Cc2ccccc2)C1", "note": "[Example 3, (R)-1-(2-(2-Benzylphenoxy)ethyl)-3-piperidinecarboxylic acid hydrochloride]", "IC50": 6.7}, {"smiles": "O=C(O)[C@@H]1CCCN(CCOc2cccc(-c3ccccc3)c2)C1", "note": "[Example 4, (R)-1-(2-(3-Phenylphenoxy)ethyl)-3-piperidinecarboxylic acid hydrochloride]", "IC50": 5.6}, {"smiles": "O=C(O)[C@@H]1CCCN(CCOc2ccccc2-c2ccccc2)C1", "note": "[Example 5, (R)-1-(2-(2-Phenylphenoxy)ethyl)-3-piperidinecarboxylic acid hydrochloride]", "IC50": 5.6}]}, {"test_system": "GABA uptake", "test": "not given", "conditions": "from the synaptic cleft into presynaptic nerve terminals and glial cells; cited from earlier work", "values": [{"smiles": "O=C(O)C1CCCNC1", "note": "(stereo not shown) [3-piperidine-carboxylic acid]", "inhibitor of GABA uptake": "well-known and potent inhibitor of GABA uptake"}]}, {"test_system": "GABA uptake", "test": "not given", "conditions": "oral; Yunger, L. M. et al., J. Pharm. Exp. Ther. 1984, 228, 109; cited from earlier work", "values": [{"smiles": "O=C(O)C1CCCN(CCC=C(c2ccccc2)c2ccccc2)C1", "note": "(stereo not shown) [SK&F 89976A, N-(4,4-diphenyl-3-buten-1-yl)nipecotic acid]", "orally active inhibitor of GABA uptake": "orally active inhibitors of GABA uptake"}, {"smiles": "O=C(O)C1=CCCN(CCC=C(c2ccccc2)c2ccccc2)C1", "note": "[SK&F 100330A, N-(4,4-diphenyl-3-buten-1-yl)guvacine]", "orally active inhibitor of GABA uptake": "orally active inhibitors of GABA uptake"}, {"smiles": "O=C(O)CC1CCN(CCC=C(c2ccccc2)c2ccccc2)C1", "note": "(stereo not drawn) [SK&F 100561, N-(4,4-diphenyl-3-buten-1-yl)-homo-β-proline]", "orally active inhibitor of GABA uptake": "orally active inhibitors of GABA uptake"}, {"smiles": "O=C(O)C1CCCN(CCC=C(c2ccccc2)c2cccs2)C1", "note": "(stereo not shown) [SK&F 100604J, N-(4-phenyl-4-(2-thienyl)-3-buten-1-yl)nipecotic acid]", "orally active inhibitor of GABA uptake": "orally active inhibitors of GABA uptake"}]}]}
